According to PubChem BioAssay (NCI):
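GI50 is the concentration that inhibits growth by half. TGI marks complete inhibition of growth.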

Columns and labels:
Assay in all cases: NCI-60 cell line screen, 384-well format
DU-145 prostate = system: DU-145 prostate
MDA-MB-231 breast = system: MDA-MB-231 breast
NCI-H522 lung = system: NCI-H522 lung
SN12C renal = system: SN12C renal
NCI-H322M lung = system: NCI-H322M lung
NCI-H226 lung = system: NCI-H226 lung
HCC-2998 colon = system: HCC-2998 colon
IGROV1 ovarian = system: IGROV1 ovarian
MDA-MB-468 breast = system: MDA-MB-468 breast
OVCAR-5 ovarian = system: OVCAR-5 ovarian
SF-539 CNS = system: SF-539 CNS
RXF 393 renal = system: RXF 393 renal
HT29 colon = system: HT29 colon
MALME-3M melanoma = system: MALME-3M melanoma
HOP-62 NSCLC = system: HOP-62 NSCLC
BT-549 breast = system: BT-549 breast
LOX IMVI melanoma = system: LOX IMVI melanoma
PC-3 prostate = system: PC-3 prostate
SNB-75 CNS = system: SNB-75 CNS
TK-10 renal = system: TK-10 renal
MDA-MB-435 melanoma = system: MDA-MB-435 melanoma
NCI/ADR-RES ovarian = system: NCI/ADR-RES ovarian
SK-MEL-5 melanoma = system: SK-MEL-5 melanoma
A498 renal = system: A498 renal
SF-268 CNS = system: SF-268 CNS
CAKI-1 renal = system: CAKI-1 renal
ACHN renal = system: ACHN renal
HL-60(TB) leukemia = system: HL-60(TB) leukemia
T-47D breast = system: T-47D breast
SK-MEL-28 melanoma = system: SK-MEL-28 melanoma
U251 glioblastoma = system: U251 glioblastoma
SNB-19 CNS = system: SNB-19 CNS
UACC-257 melanoma = system: UACC-257 melanoma
KM12 colon = system: KM12 colon
OVCAR-8 ovarian = system: OVCAR-8 ovarian
NCI-H460 NSCLC = system: NCI-H460 NSCLC
SF-295 CNS = system: SF-295 CNS
A549 NSCLC = system: A549 NSCLC
MOLT-4 leukemia = system: MOLT-4 leukemia
MCF7 breast = system: MCF7 breast
HCT-116 colon = system: HCT-116 colon
SR leukemia = system: SR leukemia
HOP-92 NSCLC = system: HOP-92 NSCLC
RPMI-8226 leukemia = system: RPMI-8226 leukemia
OVCAR-4 ovarian = system: OVCAR-4 ovarian
SK-OV-3 ovarian = system: SK-OV-3 ovarian
COLO 205 colon = system: COLO 205 colon
EKVX NSCLC = system: EKVX NSCLC
HCT-15 colon = system: HCT-15 colon
NCI-H23 lung = system: NCI-H23 lung
OVCAR-3 ovarian = system: OVCAR-3 ovarian
M14 melanoma = system: M14 melanoma
UACC-62 melanoma = system: UACC-62 melanoma
HS 578T breast = system: HS 578T breast

For `CCn1c(C(=O)N(C2CC2)C2CC2)cc2c3c(ncn3C)c(Nc3cc(C)n(C)n3)nc21`, the GI50 (DU-145 prostate) was over 100 µM, the TGI (DU-145 prostate) was over 100 µM and the GI50 (MDA-MB-231 breast) was over 100 µM. It also gave a TGI (MDA-MB-231 breast) of over 100 µM, a GI50 (NCI-H522 lung) of over 100 µM and a TGI (NCI-H522 lung) of over 100 µM. For the same molecule, the GI50 (SN12C renal) was 3.43 µM, the TGI (SN12C renal) was over 100 µM and the GI50 (NCI-H322M lung) was over 100 µM. It also gave a TGI (NCI-H322M lung) of over 100 µM, a GI50 (NCI-H226 lung) of over 100 µM and a TGI (NCI-H226 lung) of over 100 µM. For the same molecule, the GI50 (HCC-2998 colon) was over 100 µM, the TGI (HCC-2998 colon) was over 100 µM and the GI50 (IGROV1 ovarian) was 44 µM. It also gave a TGI (IGROV1 ovarian) of over 100 µM, a GI50 (MDA-MB-468 breast) of over 100 µM and a TGI (MDA-MB-468 breast) of over 100 µM. It also gave a GI50 (OVCAR-5 ovarian) of over 100 µM, a TGI (OVCAR-5 ovarian) of over 100 µM and a GI50 (SF-539 CNS) of over 100 µM. It also gave a TGI (SF-539 CNS) of over 100 µM, a GI50 (RXF 393 renal) of over 100 µM and a TGI (RXF 393 renal) of over 100 µM. The GI50 (HT29 colon) was over 100 µM, the TGI (HT29 colon) was over 100 µM and the GI50 (MALME-3M melanoma) was over 100 µM. For the same molecule, the TGI (MALME-3M melanoma) was over 100 µM, the GI50 (HOP-62 NSCLC) was over 100 µM and the TGI (HOP-62 NSCLC) was over 100 µM. It also gave a GI50 (BT-549 breast) of over 100 µM, a TGI (BT-549 breast) of over 100 µM and a GI50 (LOX IMVI melanoma) of 49.7 µM. It also gave a TGI (LOX IMVI melanoma) of over 100 µM, a GI50 (PC-3 prostate) of over 100 µM and a TGI (PC-3 prostate) of over 100 µM. It also gave a GI50 (SNB-75 CNS) of 26.2 µM, a TGI (SNB-75 CNS) of over 100 µM and a GI50 (TK-10 renal) of 81.8 µM. For the same molecule, the TGI (TK-10 renal) was over 100 µM, the GI50 (MDA-MB-435 melanoma) was over 100 µM and the TGI (MDA-MB-435 melanoma) was over 100 µM. For the same molecule, the GI50 (NCI/ADR-RES ovarian) was over 100 µM, the TGI (NCI/ADR-RES ovarian) was over 100 µM and the GI50 (SK-MEL-5 melanoma) was over 100 µM. The TGI (SK-MEL-5 melanoma) was over 100 µM, the GI50 (A498 renal) was over 100 µM and the TGI (A498 renal) was over 100 µM. For the same molecule, the GI50 (SF-268 CNS) was over 100 µM, the TGI (SF-268 CNS) was over 100 µM and the GI50 (CAKI-1 renal) was over 100 µM. The TGI (CAKI-1 renal) was over 100 µM, the GI50 (ACHN renal) was over 100 µM and the TGI (ACHN renal) was over 100 µM. For the same molecule, the GI50 (HL-60(TB) leukemia) was over 100 µM, the TGI (HL-60(TB) leukemia) was over 100 µM and the GI50 (T-47D breast) was over 100 µM. The TGI (T-47D breast) was over 100 µM, the GI50 (SK-MEL-28 melanoma) was over 100 µM and the TGI (SK-MEL-28 melanoma) was over 100 µM. For the same molecule, the GI50 (U251 glioblastoma) was over 100 µM, the TGI (U251 glioblastoma) was over 100 µM and the GI50 (SNB-19 CNS) was over 100 µM. It also gave a TGI (SNB-19 CNS) of over 100 µM, a GI50 (UACC-257 melanoma) of over 100 µM and a TGI (UACC-257 melanoma) of over 100 µM. For the same molecule, the GI50 (KM12 colon) was 0.675 µM, the TGI (KM12 colon) was over 100 µM and the GI50 (OVCAR-8 ovarian) was over 100 µM. The TGI (OVCAR-8 ovarian) was over 100 µM, the GI50 (NCI-H460 NSCLC) was over 100 µM and the TGI (NCI-H460 NSCLC) was over 100 µM. The GI50 (SF-295 CNS) was over 100 µM, the TGI (SF-295 CNS) was over 100 µM and the GI50 (A549 NSCLC) was over 100 µM. It also gave a TGI (A549 NSCLC) of over 100 µM, a GI50 (MOLT-4 leukemia) of 87.2 µM and a TGI (MOLT-4 leukemia) of over 100 µM. For the same molecule, the GI50 (MCF7 breast) was over 100 µM, the TGI (MCF7 breast) was over 100 µM and the GI50 (HCT-116 colon) was over 100 µM. For the same molecule, the TGI (HCT-116 colon) was over 100 µM, the GI50 (SR leukemia) was 8.59 µM and the TGI (SR leukemia) was 50.5 µM. The GI50 (HOP-92 NSCLC) was over 100 µM, the TGI (HOP-92 NSCLC) was over 100 µM and the GI50 (RPMI-8226 leukemia) was over 100 µM. For the same molecule, the TGI (RPMI-8226 leukemia) was over 100 µM, the GI50 (OVCAR-4 ovarian) was 33.4 µM and the TGI (OVCAR-4 ovarian) was over 100 µM. It also gave a GI50 (SK-OV-3 ovarian) of 34.8 µM, a TGI (SK-OV-3 ovarian) of over 100 µM and a GI50 (COLO 205 colon) of over 100 µM. The TGI (COLO 205 colon) was over 100 µM, the GI50 (EKVX NSCLC) was over 100 µM and the TGI (EKVX NSCLC) was over 100 µM. For the same molecule, the GI50 (HCT-15 colon) was over 100 µM, the TGI (HCT-15 colon) was over 100 µM and the GI50 (NCI-H23 lung) was over 100 µM. For the same molecule, the TGI (NCI-H23 lung) was over 100 µM, the GI50 (OVCAR-3 ovarian) was over 100 µM and the TGI (OVCAR-3 ovarian) was over 100 µM. The GI50 (M14 melanoma) was over 100 µM, the TGI (M14 melanoma) was over 100 µM and the GI50 (UACC-62 melanoma) was over 100 µM. It also gave a TGI (UACC-62 melanoma) of over 100 µM, a GI50 (HS 578T breast) of over 100 µM and a TGI (HS 578T breast) of over 100 µM.
